Values of other authors in patent US11291679B1, “Injectable, infusable, instillable ivermectin adjuvant for cancer therapies” (MOUNTAIN VALLEY MD INC., priority 2021, dated 2022).

How the values were obtained:
[1] = system: breast tumors

Compound	variability of cmax in blood plasma levels (blood plasma)	variation across the concentrations in the tumor environment (tumor environment) [fold]	immunogenic cancer cell death and T cell infiltration [1]	efficacy in vivo (limiting tumor growth) ([1]; single agent or combination, synergy p=0.03)
CCC(C)n1ncn(-c2ccc(N3CCN(c4ccc(OCC5COC(Cn6cncn6)(c6ccc(Cl)cc6Cl)O5)cc4)CC3)cc2)c1=O (stereo not shown) [itraconazole]	4-5 fold	~15		
ivermectin			induces immunogenic cancer cell death (ICD) and robust T cell infiltration into breast tumors	neither agent alone showed efficacy in vivo
